According to patent US20250134866A1, “COMMENSAL SIGNALLING COMPOUNDS FOR TREATING OR PREVENTING MICROBIOME DYSFUNCTION IN THE SKIN OR MOUTH” (priority 2022, published 2025):

Legend:
[1] = Skin redness of atopic dermatitis lesions, topical formula, dermospectrophotometer; format: in vivo, human; details: placebo 9%
Protocol: The present example tests the effect of EGT on skin inflammation in subjects with atopic dermatitis lesions.
Three topical formulas were prepared using a commercial formulation of EGT called MC-2, which is a granulated preparation of EGT mixed into mannitol. One formulation was a placebo, with only mannitol added. The second was a low dose formula containing EGT in the form of MC-2 added to a final concentration of 0.005% EGT (w/w). The third was a high dose formulation containing EGT in the form of MC-2 added to a final concentration of 0.05% EGT (w/w).
Subjects with patches of atopic dermatitis were recruited to the study and 16 were assigned to each of three arms: placebo, low dose EGT and high dose EGT. The subjects were 9 males and 39 females, representing each Fitzpatrick Skin Type (I-VI) in age range from 21 to 73 years old. The redness of the skin lesion was measured using a dermospectrophotometer and compared to adjacent uninvolved skin to determine a redness measure. The subjects used the test formula on the skin lesion twice a day for 4 weeks. The lesions were again measured with a dermospectrophotometer.

IL-8 = assay: Release of inflammatory cytokine IL-8 by human keratinocytes after treatment with S. aureus; format: cell-based; details: 24 hours pre-treatment, keratinocytes infected with S. aureus at multiplicity of infection of 10, 24 hours
Protocol: The present example examines the release of the inflammatory cytokine IL-8 by human keratinocytes after treatment with S. aureus. Although S. aureus is associated with atopic dermatitis, IL-8 […] as inflammatory cytokine in this disease (Li and Yosipovitch, 2020).
Infection of a keratinocyte culture at a multiplicity of infection of 10 increased the amount of IL-8 from low levels in uninfected cultures to an increase of 6,044% in 24 hours in infected cultures. Pre-treatment of the keratinocyte cultures with EGT for 24 hours reduced the release of IL-8 by 61% for 0.005% EGT, 75% for 0.01% EGT, and 82% for 0.05% EGT.

S. Aureus ATCC 6538 = assay: Growth of S. aureus culture in presence of EGT (optical density, 24 hours); format: cell-based; details: 0.001%, 0.05% or 0.1% (w/v) added upon inoculation, MH media, 37 C, OD monitored 24 hours
Protocol: (§1) The growth of two bacterial strains, one commensal containing EGT-synthetic genes (P. aeruginosa ATCC 27853) and one pathogen lacking such genes (S. Aureus ATCC 6538) were compared in the presence and absence of EGT. Each strain was adjusted to an OD600 of 0.2 in MH culture media, inoculated into 96-well plates and incubated at 37 C. The growth of the cultures were monitored for optical density for 24 hours. The S. aureus and P. aeruginosa cultures reached stationary phase after 15 and 2 hours, respectively. Addition of L-ergothioneine (99+% purity) at 0.001%, 0.05% or 0.1% (w/v) upon inoculation had no effect on the growth rate of either culture.

P. aeruginosa ATCC 27853 = assay: Growth of P. aeruginosa culture in presence of EGT (optical density, 24 hours); format: cell-based; details: 0.001%, 0.05% or 0.1% (w/v) added upon inoculation, MH media, 37 C, OD monitored 24 hours
Protocol: as §1

C[N+](C)(C)[C@@H](Cc1c[nH]c(=S)[nH]1)C(=O)[O-] [EGT]
redness reduction of skin lesion ([1]; high dose topical formula, 0.05% EGT (w/w) as MC-2, twice a day for 4 weeks): 50% | redness reduction of skin lesion ([1]; low dose topical formula, 0.005% EGT (w/w) as MC-2, twice a day for 4 weeks): 66% | reduction of release of IL-8 (IL-8; 0.005% EGT): 61% | reduction of release of IL-8 (IL-8; 0.01% EGT): 75% | reduction of release of IL-8 (IL-8; 0.05% EGT): 82% | effect on the growth rate of culture (S. Aureus ATCC 6538): no effect | effect on the growth rate of culture (P. aeruginosa ATCC 27853): no effect
